Laboratory results taken from US9278957B2, “Piperazine, piperidine and tetrahydropyridine derivatives and their pharmaceutical use” (ATIR Holding S.A., priority 2009, dated 2016).

What was measured:
[1] = biological target: T1, 5-HT1A receptor (Homo sapiens, UniProt P08908); experiment: 5-HT1A receptor binding (inhibition of labeled ligand binding); conditions: compound at 1micrMol
T1 sequence (P08908 1-422): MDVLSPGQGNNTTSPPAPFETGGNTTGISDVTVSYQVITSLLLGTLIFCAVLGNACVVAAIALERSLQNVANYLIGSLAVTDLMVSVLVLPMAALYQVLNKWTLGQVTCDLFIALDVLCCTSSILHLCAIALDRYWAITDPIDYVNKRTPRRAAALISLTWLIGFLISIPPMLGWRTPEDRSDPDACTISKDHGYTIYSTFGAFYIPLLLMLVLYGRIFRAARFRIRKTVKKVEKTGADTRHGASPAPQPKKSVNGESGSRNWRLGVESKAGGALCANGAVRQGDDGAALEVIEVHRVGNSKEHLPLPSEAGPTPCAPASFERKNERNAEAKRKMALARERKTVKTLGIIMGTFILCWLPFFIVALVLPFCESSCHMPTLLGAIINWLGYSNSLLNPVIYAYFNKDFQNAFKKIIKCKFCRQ
Protocol: (§1) The compounds of the invention may be used in the treatment of CNS disorders in mammals, especially human. Of particular interest is the use of the compounds of the invention as anti-dyskinetic agents. Dyskinesia is a serious side effect associated with L-DOPA treatment of patients with Parkinson's disease.
(§2) The compounds of Examples 1, 3, 4 and 9 were tested for their 5-HT1A receptor binding activity and dopamine (D2, D3 and D4.4) receptors binding activity according to the protocols set forth above. The percentage inhibition of labeled ligand binding caused by the indicated few test ligand compound of the invention at different concentrations of said test ligand is shown in Table I.

[2] = biological target: dopamine D3 receptor (Homo sapiens, UniProt P35462); experiment: dopamine D3 receptor binding (inhibition of labeled ligand binding); conditions: compound at 1micrMol
Protocol: as §1, §2

[3] = biological target: T2, dopamine D4.4 receptor (Homo sapiens, UniProt P21917); experiment: dopamine D4.4 receptor binding (inhibition of labeled ligand binding); conditions: compound at 1micrMol
T2 sequence (P21917 1-419): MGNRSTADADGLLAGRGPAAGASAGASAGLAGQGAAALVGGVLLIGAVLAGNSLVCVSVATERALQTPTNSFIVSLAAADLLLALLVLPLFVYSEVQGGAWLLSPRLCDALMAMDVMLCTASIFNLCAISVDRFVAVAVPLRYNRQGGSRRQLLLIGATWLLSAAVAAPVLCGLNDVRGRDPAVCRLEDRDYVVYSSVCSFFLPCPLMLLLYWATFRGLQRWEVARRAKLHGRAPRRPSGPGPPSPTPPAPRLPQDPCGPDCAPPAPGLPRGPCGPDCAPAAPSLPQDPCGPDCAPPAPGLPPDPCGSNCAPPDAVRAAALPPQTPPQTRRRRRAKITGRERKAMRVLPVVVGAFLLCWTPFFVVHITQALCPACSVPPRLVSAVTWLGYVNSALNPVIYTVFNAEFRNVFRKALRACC
Protocol: as §1, §2

[4] = biological target: dopamine D2 receptor (Homo sapiens, UniProt P14416); experiment: dopamine D2 receptor binding (inhibition of labeled ligand binding); conditions: compound at 1micrMol
Protocol: as §1, §2

[5] = tested on: L-DOPA induced dyskinesia in parkinsonian rats; experiment: L-DOPA-induced abnormal involuntary movements (AIMS) in the 6-OHDA lesion rat model; type: in vivo
Protocol: In the following study, the compound of Example 2 was tested for its in vivo activity against L-DOpA induced dyskinesia in parkinsonian rats (the model is the L-DOPA-induced abnormal involuntary movements (AIMS) in the 6-hydroxydopamine (6-OHDA) lesion rat model).
Rats were unilaterally lesioned with (6-OHDA) in medial forebrain bundle. Three weeks later, rats were injected with apomorphine (0.1 mg/kg s.c.) and numbers of contralateral turns were counted using a rotameter. Two weeks after the apomorphine test, rats showing marked turning activity were selected and split into 2 groups:
The experimental group, which received the compound of Example 2, and the control group, which received the injection medium for said compound (CMC in saline); n=5 and 3 respectively.
All animals were treated daily with L-dopa/carbidopa (25/6 mg/kg respectively) and dyskinetic movements were scored commencing day 5. Compounds were administered in escalating dose, at daily doses shown below, commencing day 11 of L-dopa treatment: 1 mg/kg—11th day, 1 mg/kg—12th, 2 mg/kg—15th, 2 mg/kg—16th. On the 17th day, the rats of the control group were injected with propranolol (10 mg/kg in saline), whereas the rats of the experimental group were injected with saline. […]
The following dyskinetic movements were scored: dystonic posturing, head and upper body movements, forelimb, locomotion, trunk, orolingual.

dopamine D2 receptor, sequence (P14416 whole entry): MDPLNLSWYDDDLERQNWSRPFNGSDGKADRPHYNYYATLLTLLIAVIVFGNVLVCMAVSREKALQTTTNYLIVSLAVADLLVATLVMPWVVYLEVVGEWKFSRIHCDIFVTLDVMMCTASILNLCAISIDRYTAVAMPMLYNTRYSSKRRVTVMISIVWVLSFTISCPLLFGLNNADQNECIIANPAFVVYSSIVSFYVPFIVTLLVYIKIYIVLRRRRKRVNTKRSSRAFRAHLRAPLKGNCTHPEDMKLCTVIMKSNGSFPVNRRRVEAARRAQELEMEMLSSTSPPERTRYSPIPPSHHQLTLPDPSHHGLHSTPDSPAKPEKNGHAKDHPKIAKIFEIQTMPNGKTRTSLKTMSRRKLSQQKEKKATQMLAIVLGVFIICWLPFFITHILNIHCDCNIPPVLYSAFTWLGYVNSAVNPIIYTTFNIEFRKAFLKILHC
dopamine D3 receptor, sequence (P35462 whole entry): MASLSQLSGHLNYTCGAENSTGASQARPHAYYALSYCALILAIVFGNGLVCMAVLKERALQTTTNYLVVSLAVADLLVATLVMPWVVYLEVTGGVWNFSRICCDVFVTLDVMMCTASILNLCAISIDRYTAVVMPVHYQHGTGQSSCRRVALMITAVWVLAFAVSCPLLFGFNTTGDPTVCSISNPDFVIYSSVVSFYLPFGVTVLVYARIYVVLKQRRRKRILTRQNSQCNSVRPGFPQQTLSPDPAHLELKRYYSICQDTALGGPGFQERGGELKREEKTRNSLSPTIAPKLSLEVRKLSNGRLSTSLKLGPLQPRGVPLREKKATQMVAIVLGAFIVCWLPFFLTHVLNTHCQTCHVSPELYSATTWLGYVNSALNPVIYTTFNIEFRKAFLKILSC

SMILES	5-HT1A binding, percentage inhibition of labeled ligand binding [1]	D3 binding, percentage inhibition of labeled ligand binding [2]	D4 binding, percentage inhibition of labeled ligand binding [3]	D2 binding, percentage inhibition of labeled ligand binding [4]	effect on abnormal involuntary movements (AIM score) ([5]; 6-OHDA lesioned rats on L-dopa/carbidopa, control group, 10 mg/kg in saline on the 17th day)	anti-dyskinetic effect (AIM score, sum of all movements) ([5]; 6-OHDA lesioned rats on daily L-dopa/carbidopa 25/6 mg/kg, 16th day, second successive daily dose of 2 mg/kg)
COc1ccccc1N1CCN(Cc2cccc3c2oc2ccccc23)CC1 [Example L-107]	86.7%	33.7%	78%	96%		
N#Cc1ccccc1N1CCN(Cc2cccc3c2oc2ccccc23)CC1 [Example L-109]	73.5%	63.2%	64.9%	68.7%		
CC(C)NCC(O)COc1cccc2ccccc12 (stereo not drawn) [Propanolol, propranolol, reference compound]					reduced the abnormal involuntary movements	
Oc1cccc(N2CCN(Cc3cccc4c3oc3ccccc34)CC2)c1 [Example L-33]	43.4%	78.2%	77.7%	75%		strong anti-dyskinetic effect
c1ccc(C2CCN(Cc3cccc4c3oc3ccccc34)CC2)cc1 [Example L-105]	42.2%	44.5%	69.1%	93.8%		
